In general, EC50 refers to the concentration that produces a half-maximal response.

A value given as a limit tells only on which side of the number the result lay.

For series [1], the system named is HCoV 229E. As to conditions: BEAS2B cell.
For series [2], the system named is HCoV 229E. Kind of series: organism not typed. Conditions: BEAS-2B, read-out: EC50 HCoV229E.
Series [3] concerns the target T1, SARS-CoV-2 3CL^pro (Severe acute respiratory syndrome coronavirus 2, UniProt P0DTD1). It counts as biochemical.
In series [4] the target is T1, SARS-CoV-2 3CL^pro. It counts as biochemical. The source holds these as a separate data set.

For the compound `CC(C)C[C@H](NC(=O)[C@@H](NC(=O)OC(C)(C)C)C(C)C)C(=O)N[C@H](C=O)C[C@@H]1CCNC1=O` [Compound 5, tert-Butyl ((S)-3-methyl-1-(((S)-4-methyl-1-oxo-1-(((S)-1-oxo-3-((S)-2-oxopyrrolidin-3-yl)propan-2-yl)amino)pentan-2-yl)amino)-1-oxobutan-2-yl)carbamate], in the series with HCoV 229E [1], the “SI (CC50/EC50) HCoV229E” value is given as above 30.1. Also, the “improvement in antiviral potency when co-dosed with CP-100356” value (from here on “improvement in antiviral potency”) with SARS-CoV-2 was “more than 3 fold”. Further, in the series on MERS-CoV, the “SI (CC50/EC50) MERS” value is given as 1.58 ± 0.91 (>63).
On to `CC(C)[C@H](NC(=O)OC(C)(C)C)C(=O)N1CCC[C@H]1C(=O)N[C@H](C=O)C[C@@H]1CCNC1=O` [Compound 6, tert-Butyl ((S)-3-methyl-1-oxo-1-((S)-2-(((S)-1-oxo-3-((S)-2-oxopyrrolidin-3-yl)propan-2-yl)carbamoyl)pyrrolidin-1-yl)butan-2-yl)carbamate], for which, in the series on HCoV 229E [1], the “SI (CC50/EC50) HCoV229E” value is below 10. The “SI (CC50/EC50) MERS” value in the series on MERS-CoV was 4.56 ± 1.39 (>22). For the same compound, in the series on HCoV 229E [2], the 50% effective concentration (EC50) was above 17.9 µM.
On to `CO[C@H]1C[C@@H](C(=O)N[C@H](C=O)C[C@@H]2CCNC2=O)N(C(=O)[C@@H](NC(=O)OC(C)(C)C)C(C)C)C1` [Compound 8, tert-Butyl ((S)-1-((2S,4S)-4-methoxy-2-(((S)-1-oxo-3-((S)-2-oxopyrrolidin-3-yl)propan-2-yl)carbamoyl)pyrrolidin-1-yl)-3-methyl-1-oxobutan-2-yl)carbamate], for which, in the series with HCoV 229E [1], the “SI (CC50/EC50) HCoV229E” value was below 10. Further, in the series on MERS-CoV, the “SI (CC50/EC50) MERS” value is reported as 0.58 ± 0.34 (>172) and the “increase in potency on MERS respect to SARS-CoV-2 in the CPE cellular assay” value worked out at 15 fold. Further, the EC50 in the series with HCoV 229E [2] was above 3.6 µM.
For `CC(C)[C@H](NC(=O)OC(C)(C)C)C(=O)N1C[C@H](OC(C)(C)C)C[C@H]1C(=O)N[C@H](C=O)C[C@@H]1CCNC1=O` [Compound 11, tert-Butyl ((S)-1-((2S,4R)-4-(tert-butoxy)-2-(((S)-1-oxo-3-((S)-2-oxopyrrolidin-3-yl)propan-2-yl)carbamoyl)pyrrolidin-1-yl)-3-methyl-1-oxobutan-2-yl)carbamate], the “SI (CC50/EC50) HCoV229E” value with HCoV 229E [1] is reported as below 10. For the same compound, the “improvement in antiviral potency” value with SARS-CoV-2 is “more than 3 fold”. For the same compound, the “SI (CC50/EC50) MERS” value in the series with MERS-CoV was 33.56 ± 6.8 (>3). In the series with HCoV 229E [2], the EC50 is above 48.2 µM.
As for `CC(C)[C@H](NC(=O)OC(C)(C)C)C(=O)N1C[C@@H]2CCC[C@@H]2[C@H]1C(=O)N[C@H](C=O)C[C@@H]1CCNC1=O` [Compound 12, tert-Butyl ((S)-3-methyl-1-oxo-1-((1S,3aR,6aS)-1-(((S)-1-oxo-3-((S)-2-oxopyrrolidin-3-yl)propan-2-yl)carbamoyl)hexahydrocyclopenta[c]pyrrol-2(1H)-yl)butan-2-yl)carbamate], the “cytotoxicity in Calu-3 cells” value with Calu-3 cells is recorded as “without sign of cytotoxicity”. Also, the “mechanism of action from enzymatic progression curve” value on SARS-CoV-2 3CL^pro [3] is given as “slow covalent binding inhibitor”. The “lower activity against MERS compared to SARS-CoV-2” value with MERS-CoV is 20 fold.
For `CC(C)[C@H](NC(=O)OC(C)(C)C)C(=O)N1CCCC[C@H]1C(=O)N[C@H](C=O)C[C@@H]1CCNC1=O` [Compound 13, tert-Butyl ((S)-3-methyl-1-oxo-1-((S)-2-(((S)-1-oxo-3-((S)-2-oxopyrrolidin-3-yl)propan-2-yl)carbamoyl)piperidin-1-yl)butan-2-yl)carbamate], the “improvement in antiviral potency” value in the series on SARS-CoV-2 is given as “more than 3 fold”.
For the compound `C[C@H](OC(C)(C)C)[C@H](NC(=O)OC(C)(C)C)C(=O)N1CCC[C@H]1C(=O)N[C@H](C=O)C[C@@H]1CCNC1=O` [Compound 14, tert-Butyl ((2S,3S)-3-(tert-butoxy)-1-oxo-1-((S)-2-(((S)-1-oxo-3-((S)-2-oxopyrrolidin-3-yl)propan-2-yl)carbamoyl)pyrrolidin-1-yl)butan-2-yl)carbamate], the “improvement in antiviral potency” value in the series on SARS-CoV-2 is on record as “more than 3 fold”.
As to `COC(=O)[C@H](C[C@@H]1CCNC1=O)NC(=O)[C@@H]1CCCN1C(=O)[C@@H](NC(=O)OC(C)(C)C)C(C)C` [Compound 25g, Methyl (S)-2-((S)-1-((tert-butoxycarbonyl)-L-valyl)pyrrolidine-2-carboxamido)-3-((S)-2-oxopyrrolidin-3-yl)propanoate], the “SARS-CoV-2 3CL^pro enzyme inhibition at fixed concentration” value (“SARS-CoV-2 3CL^pro enzyme inhibition” for short) at SARS-CoV-2 3CL^pro [4] is “inactive”.
As to `CC(C)[C@H](NC(=O)OC(C)(C)C)C(=O)N1CCC[C@H]1C(=O)N[C@@H](C[C@@H]1CCNC1=O)C(=O)O` [Compound 26, (S)-2-((S)-1-((tert-butoxycarbonyl)-L-valyl)pyrrolidine-2-carboxamido)-3-((S)-2-oxopyrrolidin-3-yl)propanoic acid], the “SARS-CoV-2 3CL^pro enzyme inhibition” value on SARS-CoV-2 3CL^pro [4] is “inactive”.
On to `CC(C)[C@H](NC(=O)OC(C)(C)C)C(=O)N1CCC[C@H]1C(=O)N[C@H](CO)C[C@@H]1CCNC1=O` [Compound 27g, tert-Butyl ((S)-1-((S)-2-(((S)-1-hydroxy-3-((S)-2-oxopyrrolidin-3-yl)propan-2-yl)carbamoyl)pyrrolidin-1-yl)-3-methyl-1-oxobutan-2-yl)carbamate], for which the “SARS-CoV-2 3CL^pro enzyme inhibition” value at SARS-CoV-2 3CL^pro [4] is “inactive”.

Values taken from article PMC10068823 (European Journal of Medicinal Chemistry, 2023).
